Assays:
5HT-Transporter = biological target: T1, 5HT-Transporter (Homo sapiens, UniProt P31645); experiment: Binding experiment for the 5HT-transporter ([3H]paroxetine, human platelet membranes); conditions: [3H]paroxetine 0.5 nM; for IC50: read-out: h-5HTT pIC50 (converted)
T1 construct: Human platelet membranes (Oceanix Biosciences Corporation, Hanover, Md., USA) were thawed; tissue Oceanix Biosciences Corporation, Hanover, Md., USA; host or cells: human platelet membranes
Method: (§1) The interaction of a compound of Formula (I) with α2-adrenoceptor receptors was assessed in in vitro radioligand binding experiments. In general, a low concentration of a radioligand with a high binding affinity for a particular receptor or transporter is incubated with a sample of a tissue preparation enriched in a particular receptor or transporter or with a preparation of cells expressing cloned human receptors in a buffered medium. During the incubation, the radioligand binds to the receptor or transporter. When equilibrium of binding is reached, the receptor bound radioactivity is separated from the non-bound radioactivity, and the receptor- or transporter-bound activity is counted. The interaction of the test compounds with the receptor is assessed in competition binding experiments. Various concentrations of the test compound are added to the incubation mixture containing the receptor- or transporter preparation and the radioligand. The test compound in proportion to its binding affinity and its concentration inhibits binding of the radioligand. The radioligand used for hα2A and hα2C receptor binding was [^3H]-raulwolscine.
Human platelet membranes (Oceanix Biosciences Corporation, Hanover, Md., USA) were thawed, diluted in buffer (Tris-HCl 50 mM, 120 mM NaCl and 5 mM KCl) and quickly (max 3 s) homogenised with an Ultraturrax homogenizer. […] Incubation was stopped by rapid filtration of the incubation mixture over GF/B filters, pre-wetted with 0.1% polyethyleneamine, using a Filtermate196 harvester (Packard, Meriden, Conn.). Filters were rinsed extensively with ice-cold buffer and radioactivity on the filters was counted in a Topcount liquid scintillation counter (Packard, Meriden, Conn.). Data were expressed as cpm. Imipramine (at 1 μM final concentration) was used to determine the non-specific binding.
(§2) Data from assays in the presence of compound were calculated as a percentage of total binding measured in the absence of test compound. Inhibition curves, plotting percent of total binding versus the log value of the concentration of the test compound, were automatically generated, and sigmoidal inhibition curves were fitted using non-linear regression. The pIC50 values of test compounds were derived from individual curves.

hα2C receptor = biological target: T2, hα2C receptor (Homo sapiens, UniProt P18825); experiment: Radioligand binding experiment for α2C-adrenoceptor ([3H]raulwolscine, CHO cell membranes); conditions: [3H]raulwolscine binding; for IC50: read-out: h-α2C pIC50 (converted)
T2 construct: expressed in transfected cells; host or cells: CHO cells, stably transfected; membrane preparation
T2 sequence (P18825 1-462): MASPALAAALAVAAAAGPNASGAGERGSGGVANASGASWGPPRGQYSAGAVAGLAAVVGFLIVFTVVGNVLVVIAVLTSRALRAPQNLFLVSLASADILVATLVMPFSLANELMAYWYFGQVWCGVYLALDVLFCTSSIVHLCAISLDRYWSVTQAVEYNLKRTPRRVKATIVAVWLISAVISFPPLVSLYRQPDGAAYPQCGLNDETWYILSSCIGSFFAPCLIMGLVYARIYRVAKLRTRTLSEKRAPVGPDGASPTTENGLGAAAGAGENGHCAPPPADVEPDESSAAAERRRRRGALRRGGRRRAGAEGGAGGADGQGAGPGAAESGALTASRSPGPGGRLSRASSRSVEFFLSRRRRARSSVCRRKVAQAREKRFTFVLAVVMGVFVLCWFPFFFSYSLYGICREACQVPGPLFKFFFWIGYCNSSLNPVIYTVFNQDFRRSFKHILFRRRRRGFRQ
Method: as §1
(§3) CHO cells, stabile transfected with human adrenergic-α2A and α2C receptor cDNA, were cultured in Dulbecco's Modified Eagle's Medium (DMEM)/Nutrient mixture Ham's F12 (ratio 1:1)(Gibco, Gent-Belgium) supplemented with 10% heat inactivated fetal calf serum (Life Technologies, Merelbeke-Belgium) and antibiotics (100 IU/ml penicillin G, 100 μg/ml streptomycin sulphate, 110 μg/ml pyruvic acid and 100 μg/ml L-glutamine). One day before collection, cells were induced with 5 mM sodiumbutyrate. Upon 80-90% of confluence, cells were scraped in phosphate buffered saline without Ca^2+ and Mg^2+ and collected by centrifugation at 1500×g for 10 minutes. The cells were homogenised in Tris-HCl 50 mM using an Ultraturrax homogenizer and centrifuged for 10 minutes at 23,500×g. The pellet was washed once by resuspension and rehomogenization and the final pellet was resuspended in Tris-HCl, divided in 1 ml aliquots and stored at −70° C.
(§4) Membranes were thawed and re-homogenized in incubation buffer (glycylglycine 25 mM, pH 8.0). […] Filters were rinsed extensively with ice-cold rinsing buffer (Tris-HCl 50 mM pH 7.4). Filter-bound radioactivity was determined by scintillation counting in a Topcount (Packard, Meriden, Conn.) and results were expressed as counts per minute (cpm). Non-specific binding was determined in the presence of 1 μM oxymetazoline for the hα2A receptor and 1 μM spiroxatrine for hα2C receptor.
as §2

hα2A receptor = biological target: T3, hα2A receptor (Homo sapiens, UniProt P08913); experiment: Radioligand binding experiment for α2A-adrenoceptor ([3H]raulwolscine, CHO cell membranes); conditions: [3H]raulwolscine binding; for IC50: read-out: h-α2A pIC50 (converted)
T3 construct: expressed in transfected cells; host or cells: CHO cells, stably transfected; membrane preparation
T3 sequence (P08913 1-465): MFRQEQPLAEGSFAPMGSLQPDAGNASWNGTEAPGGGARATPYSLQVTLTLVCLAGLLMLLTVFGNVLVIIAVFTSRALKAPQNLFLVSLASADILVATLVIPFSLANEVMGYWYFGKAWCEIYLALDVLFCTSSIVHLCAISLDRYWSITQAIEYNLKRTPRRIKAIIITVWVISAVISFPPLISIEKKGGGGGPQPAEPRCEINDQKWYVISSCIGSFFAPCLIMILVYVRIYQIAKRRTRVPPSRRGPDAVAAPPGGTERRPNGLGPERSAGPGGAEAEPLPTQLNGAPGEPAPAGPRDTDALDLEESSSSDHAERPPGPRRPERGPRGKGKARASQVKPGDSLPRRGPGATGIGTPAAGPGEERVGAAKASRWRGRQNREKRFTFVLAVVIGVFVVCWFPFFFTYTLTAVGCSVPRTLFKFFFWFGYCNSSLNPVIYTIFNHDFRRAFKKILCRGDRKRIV
Method: as §1, §3, §4, §2

T1 sequence (P31645 whole entry): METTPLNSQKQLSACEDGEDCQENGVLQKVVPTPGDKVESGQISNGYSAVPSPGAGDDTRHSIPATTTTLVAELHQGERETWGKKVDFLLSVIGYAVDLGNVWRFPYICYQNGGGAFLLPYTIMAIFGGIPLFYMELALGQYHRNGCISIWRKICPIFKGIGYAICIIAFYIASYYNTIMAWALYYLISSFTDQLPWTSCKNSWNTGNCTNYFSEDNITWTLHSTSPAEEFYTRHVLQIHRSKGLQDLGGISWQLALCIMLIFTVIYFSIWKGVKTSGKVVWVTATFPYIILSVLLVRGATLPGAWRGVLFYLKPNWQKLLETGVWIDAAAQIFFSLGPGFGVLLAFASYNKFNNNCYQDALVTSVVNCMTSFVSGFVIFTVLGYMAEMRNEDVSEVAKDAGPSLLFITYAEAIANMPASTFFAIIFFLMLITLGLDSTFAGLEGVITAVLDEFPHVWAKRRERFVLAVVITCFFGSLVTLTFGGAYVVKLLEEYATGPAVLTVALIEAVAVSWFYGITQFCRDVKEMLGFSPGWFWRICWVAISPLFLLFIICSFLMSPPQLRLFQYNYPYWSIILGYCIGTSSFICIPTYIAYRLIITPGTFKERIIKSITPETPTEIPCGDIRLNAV

| IC50 (5HT-Transporter) [nM] | IC50 (hα2C receptor) [nM] | IC50 (hα2A receptor) [nM] | h-5HTT pIC50 (5HT-Transporter) | h-α2C pIC50 (hα2C receptor) | h-α2A pIC50 (hα2A receptor) | SMILES |
| --- | --- | --- | --- | --- | --- | --- |
| 2000 | 6.31 | 63.1 | – | – | – | C/C(=C\c1ccccc1)CN1CCC(Nc2nccn(CCCN)c2=O)CC1 [1-1] |
| – | – | 39.8 | – | – | – | C/C(=C\c1ccccc1)CN1CCC(Nc2nccn(CCCN)c2=O)CC1 [1-2] |
| > 10000 | 31.6 | 200 | – | – | – | C/C(=C\c1ccccc1)CN1CCC(Nc2nccn(CCC(N)=O)c2=O)CC1 [1-3] |
| 3160 | 5.01 | 31.6 | – | – | – | C/C(=C\c1ccccc1)CN1CCC(Nc2nccn(-c3cccc(N)c3)c2=O)CC1 [1-4] |
| 2000 | 6.31 | 100 | – | – | – | C/C(=C\c1ccccc1)CN1CCC(Nc2nccn(-c3ccc(N)cc3)c2=O)CC1 [1-5] |
| 794 | 3.16 | 15.8 | – | – | – | C/C(=C\c1ccccc1)CN1CCC(Nc2nccn(Cc3ccc(CN)cc3)c2=O)CC1 [1-7] |
| 3980 | 3.16 | 50.1 | – | – | – | CNCCCn1ccnc(NC2CCN(C/C(C)=C/c3ccccc3)CC2)c1=O [1-8] |
| 1580 | 3.98 | 31.6 | – | – | – | CNCc1ccc(Cn2ccnc(NC3CCN(C/C(C)=C/c4ccccc4)CC3)c2=O)cc1 [1-9] |
| 2000 | 10 | 126 | – | – | – | CCCNC(=O)Cn1ccnc(NC2CCN(C/C(C)=C/c3ccccc3)CC2)c1=O [1-10] |
| 631 | 1 | 3.16 | – | – | – | CCCNCc1cccc(-n2ccnc(NC3CCN(C/C(C)=C/c4ccccc4)CC3)c2=O)c1 [1-11] |
| – | – | – | 6.1 | 9.0 | 8.4 | CCCNCc1cccc(-n2ccnc(NC3CCN(C/C(C)=C/c4ccccc4)CC3)c2=O)c1 [1-12] |
| 398 | 7.94 | 79.4 | – | – | – | CCCNC(=O)c1ccc(-n2ccnc(NC3CCN(C/C(C)=C/c4ccccc4)CC3)c2=O)cc1 [1-13] |
| 7940 | 3.98 | 50.1 | – | – | – | C/C(=C\c1ccccc1)CN1CCC(Nc2nccn(CCCN(C)C)c2=O)CC1 [1-15] |
| 1000 | 1.58 | 5.01 | – | – | – | CCN(CC)c1cccc(-n2ccnc(NC3CCN(C/C(C)=C/c4ccccc4)CC3)c2=O)c1 [1-17] |
| 1000 | 12.6 | 39.8 | – | – | – | CCN(CC)c1ccc(C(=O)Cn2ccnc(NC3CCN(C/C(C)=C/c4ccccc4)CC3)c2=O)cc1 [1-18] |
| 1580 | 10 | 126 | – | – | – | CCCN(C)C(=O)Cn1ccnc(NC2CCN(C/C(C)=C/c3ccccc3)CC2)c1=O [1-19] |
| 1000 | 3.98 | 79.4 | – | – | – | C/C(=C\c1ccccc1)CN1CCC(Nc2nccn(CC(=O)N(C)C3CCCCC3)c2=O)CC1 [1-20] |
| 2510 | 20 | 316 | – | – | – | C/C(=C\c1ccccc1)CN1CCC(Nc2nccn(CC(=O)N(C)CCO)c2=O)CC1 [1-21] |
| 631 | 12.6 | 100 | – | – | – | COCCNC(=O)c1ccc(-n2ccnc(NC3CCN(C/C(C)=C/c4ccccc4)CC3)c2=O)cc1 [1-22] |
| 2510 | 6.31 | 200 | – | – | – | COCCCNC(=O)Cn1ccnc(NC2CCN(C/C(C)=C/c3ccccc3)CC2)c1=O [1-23] |

| IC50 (5HT-Transporter) [nM] | IC50 (hα2C receptor) [nM] | IC50 (hα2A receptor) [nM] | h-5HTT pIC50 (5HT-Transporter) | h-α2C pIC50 (hα2C receptor) | h-α2A pIC50 (hα2A receptor) | SMILES |
| --- | --- | --- | --- | --- | --- | --- |
| 3160 | 7.94 | 126 | – | – | – | COCCN(C)C(=O)Cn1ccnc(NC2CCN(C/C(C)=C/c3ccccc3)CC2)c1=O [1-24] |
| 1580 | 1 | 5.01 | – | – | – | COCCN(C)Cc1cccc(-n2ccnc(NC3CCN(C/C(C)=C/c4ccccc4)CC3)c2=O)c1 [1-25] |
| – | – | – | 5.8 | 8.7 | 7.2 | COCCN(C)Cc1ccc(-n2ccnc(NC3CCN(C/C(C)=C/c4ccccc4)CC3)c2=O)cc1 [1-26] |
| 501 | 2.51 | 31.6 | – | – | – | COCCN(C)C(=O)c1ccc(-n2ccnc(NC3CCN(C/C(C)=C/c4ccccc4)CC3)c2=O)cc1 [1-27] |
| 2510 | 5.01 | 79.4 | – | – | – | C#CCN(C)C(=O)Cn1ccnc(NC2CCN(C/C(C)=C/c3ccccc3)CC2)c1=O [1-28] |
| – | – | – | 6.0 | 8.1 | 7.0 | CC(=O)NCc1ccc(-n2ccnc(NC3CCN(C/C(C)=C/c4ccccc4)CC3)c2=O)cc1 [1-29] |
| 1260 | 31.6 | 158 | – | – | – | CC(=O)NCc1ccc(Cn2ccnc(NC3CCN(C/C(C)=C/c4ccccc4)CC3)c2=O)cc1 [1-30] |
| 794 | 50.1 | 200 | – | – | – | CCCC(=O)NCc1ccc(Cn2ccnc(NC3CCN(C/C(C)=C/c4ccccc4)CC3)c2=O)cc1 [1-31] |
| 316 | – | 39.8 | – | – | – | C/C(=C\c1ccccc1)CN1CCC(Nc2nccn(CCCNCc3ccccc3)c2=O)CC1 [1-46] |
| 501 | – | 25.1 | – | – | – | C/C(=C\c1ccccc1)CN1CCC(Nc2nccn(CCCNCc3ccccc3)c2=O)CC1 [1-47] |
| 2510 | 3.16 | – | – | – | – | C/C(=C\c1ccccc1)CN1CCC(Nc2nccn(CCN3CCCCC3)c2=O)CC1 [2-4] |
| – | 25.1 | – | – | – | – | C/C(=C\c1ccccc1)CN1CCC(Nc2nccn(CCN3CCOCC3)c2=O)CC1 [2-40] |
| – | 39.8 | 316 | – | – | – | COCCn1ccnc(NC2CCN(C/C(C)=C/c3ccccc3)CC2)c1=O [3-5] |
| – | 5.01 | 25.1 | – | – | – | C/C(=C\c1ccccc1)CN1CCC(Nc2nccn(-c3ccccn3)c2=O)CC1 [6-9] |
| – | 3.16 | 12.6 | – | – | – | C/C(=C\c1ccccc1)CN1CCC(Nc2nccn(-c3ccccn3)c2=O)CC1 [6-10] |
| – | 31.6 | 100 | – | – | – | C/C(=C\c1ccccc1)CN1CCC(Nc2ncc[nH]c2=O)CC1 [7-1] |
| – | 12.6 | 50.1 | – | – | – | CC(=O)Cn1ccnc(NC2CCN(C/C(C)=C/c3ccccc3)CC2)c1=O [7-7] |
| – | 251 | 2000 | – | – | – | C/C(=C\c1ccccc1)CN1CCN(c2nccn(CCCN3CCCC3=O)c2=O)CC1 [9-1] |
| – | 63.1 | 501 | – | – | – | CN(C)CCCn1ccnc(NC2CCN(C/C=C/c3ccccc3)CC2)c1=O [16-2] |
